PubChem BioAssay AID2060489 (Molecular Pharmacology Branch, DTP, NCI, 2025)
“And” between values parts separate entries of the source, which are not always exact repeats. Equal values may be shown once.

Test system: 922993-354-T-J3-PDC complex spheroids, viability
Assay: Anticancer human tumor 922993-354-T-J3-PDC patient-derived endometrial carcinoma cell line growth inhibition [GQUAD]
Settings: for viability, T/C: stronger effect = lower value
Text: DNA G-quadruplex Stabilizer Agents in Combinations in Complex Spheroids
A high-throughput screen of multi-cell type tumor spheroids was designed to identify active combinations of DNA G-quadruplex stabilizer agents and targeted small molecules. Complex spheroids include a stromal component modeled by human endothelial cells (HUVEC) and fibroblasts modeled by human mesenchymal stem cells (MSCs). The concentration ranges selected for each drug and investigational agent were based upon clinically achievable concentrations if the clinical Cmax of the agent was known.
Compounds. The drugs and investigational agents: pidnarulex (CX-5461; NSC782164), APTO-253 (NSC789042), BRACO-19 (NSC847499), peposertib (NSC802822), ceralasertib (NSC780249), elimusertib (NSC800525), camonsertib (NSC841442), AZD-1390 (NSC803789), olaparib (NSC753686), talazoparib (NSC767125), ART-558 (NSC835418), sotorasib (NSC818433), MRTX-1133 (NSC836407), SN-38 (NSC673596), topotecan (NSC609699), etoposide (NSC141540), doxorubicin (NSC123127), gemcitabine (NSC613327), 5-fluorouracil (NSC19893), paclitaxel (NSC125973), vemurafenib (NSC761431), panobinostat (NSC761190), R-306465 (JNJ-16241199; NSC773264), adavosertib (NSC754352), TP-3654 (NSC805149), carboplatin (NSC241240), KSQ-4279 (NSC840948), and staurosporine (NSC755774) were obtained from the National Cancer Institute (NCI) Developmental Therapeutics Program Chemical Repository (34). The FDA-approved anticancer drug set is available from the NCI Developmental Therapeutics Program. […] The stock solutions were prepared in dimethyl sulfoxide (DMSO, Sigma-Aldrich, St. Louis, MO, cat. D2650) at 800-fold the tested concentration and stored at -70 degrees C prior to their use. All drugs and investigational agents were tested over a range starting from a high concentration at or near the clinical Cmax and decreasing in half-log increments. If the clinical Cmax for an agent had not been determined, the highest concentration tested was 10 microM.
2.3 Cell Culture. All cells were maintained in an incubator at 37 degrees C and 5% CO2 with 95% humidity. The PDC lines were cultured according to standard operating procedures established by the NCI PDMR. All PDCs were thawed and cultured in Matrigel-coated flasks prepared with a working solution of 1X Ham's F-12 nutrient mix, without supplementation (Invitrogen, cat. 11765054), 100 U/mL penicillin-streptomycin (Invitrogen, cat. 15140122), and 2.5% Matrigel (Corning Inc., cat. 354248) for the first three passages. The 857933-349-R-J2-PDC line was cultured in 6C/Colon 1B media, which includes advanced DMEM/F-12 (Thermo Fisher Scientific, cat. 12634028), 10 mM HEPES (Thermo Fisher Scientific, cat. 15630080), 1X GlutaMAX supplement (Thermo Fisher Scientific, cat. 35050061), 0.1 mg/mL primocin (InvivoGen, cat. ant-pm-2), 10% defined fetal bovine serum, heat inactivated (HyClone Laboratories Inc., cat. SH30070.03HI), 50% L-WRN conditioned media (ATCC, cat. CRL-3276), 1.25 mM N-Acetyl-L-cysteine (Sigma-Aldrich, cat. A9165), 10 mM nicotinamide (Sigma-Aldrich, cat. N0636), 1X B-27 supplement (Thermo Fisher Scientific, cat. 17504044), 1X N-2 supplement (Thermo Fisher Scientific, cat. 17502048), 10 microM Y-27632 dihydrochloride (Tocris Bioscience, cat. 1254), and 50 ng/mL human EGF recombinant protein (Thermo Fisher Scientific, cat. PHG0311). The 485176-168-R4-J1-PDC line was cultured in Panc media, which includes all 6C/Colon 1B media components plus 100 ng/mL human FGF-10 (Thermo Fisher Scientific, cat. 100-26), 500 nM SB-431542 (Selleckchem, cat. S1067), and gastrin (Tocris, cat. 3006).
[…]
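Further: spheroids exposed to compounds for seven days.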
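Wherever viability, T/C is given: 100% = DMSO vehicle control viability.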

SMILES: O=C(NO)c1cnc(N2CCN(S(=O)(=O)c3ccc4ccccc4c3)CC2)nc1 + Cc1[nH]c2ccc(F)cc2c1-c1nc2c3cccnc3c3ncccc3c2[nH]1
- IC50 (curve of first compound, second compound 0.0316 µM): 0.409 µM
- IC50 (curve of first compound, second compound 0.1 µM): 0.542 µM
- IC50 (curve of first compound, second compound 0.316 µM): 0.772 µM
- IC50 (curve of first compound, second compound 1 µM): 0.87 µM
- IC50 (curve of first compound, second compound 3.16 µM): 1.12 µM
- IC50 (curve of first compound, second compound 10 µM): 0.921 µM
- viability, T/C (second compound 0.0316 µM, first compound 0.0316 µM): 116%
- viability, T/C (second compound 0.0316 µM, first compound 0.1 µM): 89.1%
- viability, T/C (second compound 0.0316 µM, first compound 0.316 µM): 52.9%
- viability, T/C (second compound 0.0316 µM, first compound 1 µM): 34.6%
- viability, T/C (second compound 0.0316 µM, first compound 3.16 µM): 3.09%
- viability, T/C (second compound 0.0316 µM, first compound 10 µM): 0.42%
- viability, T/C (second compound 0.1 µM, first compound 0.0316 µM): 114%
- viability, T/C (second compound 0.1 µM, first compound 0.1 µM): 89.5%
- viability, T/C (second compound 0.1 µM, first compound 0.316 µM): 65%
- viability, T/C (second compound 0.1 µM, first compound 1 µM): 38.6%
- viability, T/C (second compound 0.1 µM, first compound 3.16 µM): 3.39%
- viability, T/C (second compound 0.1 µM, first compound 10 µM): 0.48%
- viability, T/C (second compound 0.316 µM, first compound 0.0316 µM): 93.2%
- viability, T/C (second compound 0.316 µM, first compound 0.1 µM): 95.9%
- viability, T/C (second compound 0.316 µM, first compound 0.316 µM): 72.2%
- viability, T/C (second compound 0.316 µM, first compound 1 µM): 46.6%
- viability, T/C (second compound 0.316 µM, first compound 3.16 µM): 4.7%
- viability, T/C (second compound 0.316 µM, first compound 10 µM): 0.61%
- viability, T/C (second compound 1 µM, first compound 0.0316 µM): 84.2%
- viability, T/C (second compound 1 µM, first compound 0.1 µM): 90.3%
- viability, T/C (second compound 1 µM, first compound 0.316 µM): 68.7%
- viability, T/C (second compound 1 µM, first compound 1 µM): 51.2%
- viability, T/C (second compound 1 µM, first compound 3.16 µM): 6.64%
- viability, T/C (second compound 1 µM, first compound 10 µM): 0.62%
- viability, T/C (second compound 3.16 µM, first compound 0.0316 µM): 75.7%
- viability, T/C (second compound 3.16 µM, first compound 0.1 µM): 86.5%
- viability, T/C (second compound 3.16 µM, first compound 0.316 µM): 91.1%
- viability, T/C (second compound 3.16 µM, first compound 1 µM): 51.4%
- viability, T/C (second compound 3.16 µM, first compound 3.16 µM): 15%
- viability, T/C (second compound 3.16 µM, first compound 10 µM): 0.64%
- viability, T/C (second compound 10 µM, first compound 0.0316 µM): 82.8%
- viability, T/C (second compound 10 µM, first compound 0.1 µM): 101%
- viability, T/C (second compound 10 µM, first compound 0.316 µM): 74.7%
- viability, T/C (second compound 10 µM, first compound 1 µM): 48.2%
- viability, T/C (second compound 10 µM, first compound 3.16 µM): 14.7%
- viability, T/C (second compound 10 µM, first compound 10 µM): 0.76%

SMILES: CCCS(=O)(=O)Nc1ccc(F)c(C(=O)c2c[nH]c3ncc(-c4ccc(Cl)cc4)cc23)c1F
- viability, T/C (compound 0.0316 µM): 101% and 91.3% and 97.1%
- viability, T/C (compound 0.1 µM): 81% and 90.5% and 83.1%
- viability, T/C (compound 0.316 µM): 99.1% and 89.8% and 101%
- viability, T/C (compound 1 µM): 87.5% and 81% and 76%
- viability, T/C (compound 3.16 µM): 78.5% and 68.7% and 87.7%
- viability, T/C (compound 10 µM): 37.7% and 68.9% and 71%
- IC50 (curve of compound): 7.09 µM and > 10 µM

SMILES: Cc1[nH]c2ccccc2c1CCNCc1ccc(/C=C/C(=O)NO)cc1
- viability, T/C (compound 0.000999 µM): 83.6% and 110% and 88.9%
- viability, T/C (compound 0.00316 µM): 102% and 93.8% and 74%
- viability, T/C (compound 0.00999 µM): 70% and 75.6% and 89.6%
- viability, T/C (compound 0.0316 µM): 101% and 89% and 85.7%
- viability, T/C (compound 0.0999 µM): 63.2% and 87.7% and 68.7%
- viability, T/C (compound 0.316 µM): 57.2% and 55.4% and 52.3%
- IC50 (curve of compound): > 0.316 µM

SMILES: COc1cccc2c1C(=O)c1c(O)c3c(c(O)c1C2=O)CC(O)(C(=O)CO)CC3OC1CC(N)C(O)C(C)O1 (configuration not stated)
- viability, T/C (compound 0.0316 µM): 101% and 78% and 112%
- viability, T/C (compound 0.1 µM): 85.8% and 98% and 78.3%
- viability, T/C (compound 0.316 µM): 83.7% and 94.3% and 93%
- viability, T/C (compound 1 µM): 108% and 71.4% and 89.4%
- viability, T/C (compound 3.16 µM): 68.2% and 64.5% and 86%
- viability, T/C (compound 10 µM): 57.2% and 28.9% and 43.5%
- IC50 (curve of compound): > 10 µM and 4.82 µM and 8.46 µM

SMILES: CC1COCCN1c1cc(C2(S(C)(=N)=O)CC2)nc(-c2ccnc3[nH]ccc23)n1 (configuration not stated)
- viability, T/C (compound 0.0316 µM): 99.8% and 96.6% and 97.3%
- viability, T/C (compound 0.1 µM): 93.4% and 96.7% and 96.8%
- viability, T/C (compound 0.316 µM): 91.8% and 84.6% and 95.6%
- viability, T/C (compound 1 µM): 106% and 98.6% (2×)
- viability, T/C (compound 3.16 µM): 93.7% and 129% and 92.5%
- viability, T/C (compound 10 µM): 65.3% and 70.4% and 60.7%
- IC50 (curve of compound): > 10 µM

SMILES: O=C(c1cc(Cc2n[nH]c(=O)c3ccccc23)ccc1F)N1CCN(C(=O)C2CC2)CC1
- viability, T/C (compound 0.0316 µM): 86.5% and 123% and 91.1%
- viability, T/C (compound 0.1 µM): 93% and 92.2% and 94.4%
- viability, T/C (compound 0.316 µM): 102% and 98.1% and 105%
- viability, T/C (compound 1 µM): 86.7% and 85.6% and 86.3%
- viability, T/C (compound 3.16 µM): 88.2% and 92.5% and 92.1%
- viability, T/C (compound 10 µM): 99.3% and 77.2% and 85.4%
- IC50 (curve of compound): > 10 µM
